From patent US10251902B2, “Pharmaceutical composition for treating or preventing neuropsychiatric disease, containing flavone-6-C-glucose derivatives as active ingredients” (priority 2013, dated 2019)

Legend:
Format in all cases: in vivo, ICR mice
[1] = test system: model of memory impairment induced by scopolamine; experiment: Passive avoidance test in scopolamine-induced memory impairment model; details: for Main Experiment / Passive Avoidance Learning: Table 2, scopolamine 1 mg/Kg i.p.; for Main Experiment: latency 24 h after learning, up to 300 seconds; for Passive Avoidance Learning: latency in learning trial; for latency time extended compared to that of the control 2: main experiment, control 2 = scopolamine
Procedure: An experiment was conducted to confirm effects of swertisin or isoorientin, and extracts of Swertia pseudochinensis or Swertia japonica containing the same prepared in Examples 1 to 3 in treating dementia by using a model of memory impairment induced by scopolamine. Detailed method follows.
(§1) Six-week old ICR mice in about 26 g to 28 g (Orientbio Inc, Republic of Korea) were received water and feed without constraint and adapted for 5 days under an environment having about 23±1° C. of temperature, about 60±10% of humidity and 12-hour light/dark cycle (animal laboratory at College of Pharmacy, Kyung-Hee University), and then used for the experiment.
An apparatus for measuring passive avoidance reaction was prepared. The apparatus has 2 separated chambers (the first and second chambers) and there is a guillotine-shaped passage that connects the first chamber and the second chamber. The first chamber was maintained brightly by using a light, and the second chamber was maintained darkly. A grid was installed on the floor of the second chamber. The grid generates 0.5 mA of electric shock for 3 seconds when the laboratory animal moved into the dark chamber.
About 30 minutes later, 1 mg/Kg of scopolamine, which was dissolved in distilled water, was intraperitoneally administered to the drug administration groups 1 to 4 and controls 1 and 2 (Ebert, U. et al., Eur. J. Clin. Invest., 28, pp 944-949, 1998), and 0.9% of saline solution was intraperitoneally administered to the control 3. After 30 minutes, passive avoidance learning was conducted on the drug administration groups 1-4 and controls 1-3. In detail, the mice were located in the first chamber (i.e. bright space) and the passage was open after about 20 seconds of observation time, and then latency time of the mice moving to the second chamber (i.e. dark space) was measured.
Twenty-four hours after the passive avoidance learning, a main experiment was conducted on the drug administration groups 1-4 and controls 1-3. Latency time of the mice of each group moving their 4 legs into the dark space after 10 seconds of observation time from opening of the guillotine-shaped passage was measured up to 300 seconds. It means that the passive avoidance learning and memory are better if the latency time is longer.
(§2) The passive avoidance test was conducted on the drug administration groups 1-4 and controls 1-3 in the same manner as the method explained above except that swertisin, which is one of the flavone-6-C-β-D-glucose derivatives prepared in Example 3, was dissolved in 10% Tween 80 and administered to the drug administration groups 1-4 in amounts of 1.25 mg/kg, 2.5 mg/kg, 5 mg/kg and 10 mg/kg respectively.
as §2, with “Experimental Example 1-1” for “the method explained above”, “isoorientin,” for “swertisin,”
(§3) The passive avoidance test was conducted on the drug administration groups 1-3 and controls 1-3 in the same manner as Experimental Example 1-1 except that a 70% ethanol extract of Swertia japonica prepared in Example 1, was dissolved in 10% Tween and administered to the drug administration groups 1-3 in amounts of 100 mg/kg, 200 mg/kg and 400 mg/kg respectively.
as §3, with “pseudochinensis” for “japonica”, “2,” for “1,”, “Tween 80” for “Tween”

[2] = test system: anxiety symptoms in a normal status; experiment: Marble burying test; details: swertisin 10 mg/kg
Procedure: as §1
As a method of measuring alleviation of anxiety symptoms in a normal status, the marble burying test was conducted based on the nature of mice that they dig when feel anxiety. Inside of a cage in size of 40 cm s 27 cm s 18 cm was covered with straw to the height of 4 cm, and 25 marbles having same pattern were arranged at intervals of 3 cm. Two groups (10 mice per each group) were prepared as the drug administration group 1, wherein swertisin, which is one of the flavone-6-C-β-D-glucose derivatives prepared in Example 3, was administered, and the control 1. […]
After 60 minutes of administration, mice of the drug administration group 1 and the control 1 were carefully located in the cage having the marbles and the mice were allowed to move freely for 30 minutes. After 30 minutes, the number of buried marbles under straw was counted. […] The more the number of buried marbles, it was assessed that the laboratory animal feels anxiety severer (Broekkamp, C L. et al., Eur J Pharmacol., 126, pp 223-229, 1986).

[3] = test system: pentobarbital-induced sleep; experiment: Sleep-inducing test (pentobarbital); details: swertisin 10 mg/kg
Procedure: as §1, with “experiment. Foods were blocked at 24 hours before the test.” for “experiment.”
The mice prepared in 1) were divided into […] (10 mice per each group) including the drug administration group 1, wherein swertisin was administered, and the controls 1 and 2. Swertisin prepared in Example 3 was dissolved in 10% Tween 80 (Polyoxyethylene sorbitan monooleate: Sigma, U.S.A.) and administered to the drug administration group 1 in an amount of 10 mg/kg. Meanwhile, 0.15 mL of 10% Tween 80 was administered to the control 1.
After 1 hour of administration, pentobarbital was dissolved in a saline solution and intraperitoneally administered to the mouse in an amount of 60 mg/kg. The mouse was located in the cage. At this time, straw was laid in the cage only enough to cover the floor, and only one mouse was located in the cage for observation. […]

COc1cc2oc(-c3ccc(O)cc3)cc(=O)c2c(O)c1[C@@H]1O[C@H](CO)[C@@H](O)[C@H](O)[C@H]1O [swertisin]
Main Experiment ([1]; swertisin 1.25 mg/kg): 67.13 ± 26.08 s | Passive Avoidance Learning ([1]; swertisin 1.25 mg/kg): 30.20 ± 14.53 s | Main Experiment ([1]; swertisin 2.5 mg/kg): 82.11 ± 35.20 s | Passive Avoidance Learning ([1]; swertisin 2.5 mg/kg): 19.10 ± 10.37 s | Main Experiment ([1]; swertisin 5 mg/kg): 117.3 ± 44.16 s | Passive Avoidance Learning ([1]; swertisin 5 mg/kg): 20.40 ± 10.11 s | Main Experiment ([1]; swertisin 10 mg/kg): 117.7 ± 52.28 s | Passive Avoidance Learning ([1]; swertisin 10 mg/kg): 29.70 ± 18.76 s | latency time extended compared to that of the control 2 ([1]; swertisin 1.25 mg/Kg): about 2 fold | latency time extended compared to that of the control 2 ([1]; swertisin 2.5 mg/Kg): about 2.5 fold | latency time extended compared to that of the control 2 ([1]; swertisin 5 mg/Kg): about 3 fold | latency time extended compared to that of the control 2 ([1]; swertisin 10 mg/Kg): about 3 fold | number of the buried marbles compared to that of the control 1, in words [2]: decreased | Number of Buried Marbles ([2]; 60 minutes after administration, 30 minutes in cage, 25 marbles): 21.78 ± 1.856 | total sleep time compared to the control 1, in words ([3]; pentobarbital 60 mg/kg i.p.): remarkably decreased | Total Sleep Time ([3]; pentobarbital 60 mg/kg i.p. 1 hour after administration): 94.47 ± 21.83 min
